Read-outs that look alike come from different tables or passages of the source.
Tests used:
[1] = molecular target: PI3K-alpha (Homo sapiens, UniProt P42336); assay: PI3K-alpha fluorescence polarization assay; assay type: biochemical; details: read-out: PI3Kα Avg. IC50
[2] = molecular target: PI3K-gamma (Homo sapiens, UniProt P48736); assay: PI3K-gamma fluorescence polarization assay; assay type: biochemical
In short: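 Enzyme 5 ng; substrate diC8-PI(4,5)P2 2.5 μM; ATP 25 μM; 5 mM HEPES pH 7, 2.5 mM MgCl2; DMSO ≤2%; 1 h, 25° C. Quench 10 mM EDTA. Detect with GRP1 PH domain 100 nM + TMR-IP4 probe 5 nM by polarization.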

PI3K-gamma, sequence (P48736 whole entry, species assumed, the tested form may be a part): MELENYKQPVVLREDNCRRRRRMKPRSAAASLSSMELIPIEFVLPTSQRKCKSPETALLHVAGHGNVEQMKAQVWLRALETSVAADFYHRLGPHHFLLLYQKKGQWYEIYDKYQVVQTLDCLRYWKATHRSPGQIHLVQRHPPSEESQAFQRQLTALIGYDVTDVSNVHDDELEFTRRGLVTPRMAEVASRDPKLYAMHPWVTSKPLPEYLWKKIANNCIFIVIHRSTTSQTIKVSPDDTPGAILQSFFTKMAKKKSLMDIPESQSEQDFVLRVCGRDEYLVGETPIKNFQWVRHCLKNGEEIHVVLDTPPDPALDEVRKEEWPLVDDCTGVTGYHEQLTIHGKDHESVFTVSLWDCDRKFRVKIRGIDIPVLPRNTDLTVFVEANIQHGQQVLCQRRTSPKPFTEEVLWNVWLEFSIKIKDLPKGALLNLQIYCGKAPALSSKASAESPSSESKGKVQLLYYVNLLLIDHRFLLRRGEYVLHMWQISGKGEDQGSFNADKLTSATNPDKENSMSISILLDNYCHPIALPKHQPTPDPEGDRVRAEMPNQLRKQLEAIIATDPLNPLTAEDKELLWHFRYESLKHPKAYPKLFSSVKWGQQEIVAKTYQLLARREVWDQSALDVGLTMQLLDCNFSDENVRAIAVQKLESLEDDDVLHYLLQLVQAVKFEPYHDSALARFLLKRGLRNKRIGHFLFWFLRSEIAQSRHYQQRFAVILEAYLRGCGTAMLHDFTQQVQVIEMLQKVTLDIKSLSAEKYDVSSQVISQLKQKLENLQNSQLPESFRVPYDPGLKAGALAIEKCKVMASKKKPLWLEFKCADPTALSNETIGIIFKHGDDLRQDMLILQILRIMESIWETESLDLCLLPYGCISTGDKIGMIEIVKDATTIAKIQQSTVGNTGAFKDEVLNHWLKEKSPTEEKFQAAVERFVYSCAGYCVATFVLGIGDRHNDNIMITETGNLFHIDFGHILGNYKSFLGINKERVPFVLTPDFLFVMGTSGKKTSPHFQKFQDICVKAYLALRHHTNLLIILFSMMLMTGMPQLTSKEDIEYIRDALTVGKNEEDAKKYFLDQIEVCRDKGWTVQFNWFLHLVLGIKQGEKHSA
PI3K-alpha, sequence (P42336 whole entry, species assumed): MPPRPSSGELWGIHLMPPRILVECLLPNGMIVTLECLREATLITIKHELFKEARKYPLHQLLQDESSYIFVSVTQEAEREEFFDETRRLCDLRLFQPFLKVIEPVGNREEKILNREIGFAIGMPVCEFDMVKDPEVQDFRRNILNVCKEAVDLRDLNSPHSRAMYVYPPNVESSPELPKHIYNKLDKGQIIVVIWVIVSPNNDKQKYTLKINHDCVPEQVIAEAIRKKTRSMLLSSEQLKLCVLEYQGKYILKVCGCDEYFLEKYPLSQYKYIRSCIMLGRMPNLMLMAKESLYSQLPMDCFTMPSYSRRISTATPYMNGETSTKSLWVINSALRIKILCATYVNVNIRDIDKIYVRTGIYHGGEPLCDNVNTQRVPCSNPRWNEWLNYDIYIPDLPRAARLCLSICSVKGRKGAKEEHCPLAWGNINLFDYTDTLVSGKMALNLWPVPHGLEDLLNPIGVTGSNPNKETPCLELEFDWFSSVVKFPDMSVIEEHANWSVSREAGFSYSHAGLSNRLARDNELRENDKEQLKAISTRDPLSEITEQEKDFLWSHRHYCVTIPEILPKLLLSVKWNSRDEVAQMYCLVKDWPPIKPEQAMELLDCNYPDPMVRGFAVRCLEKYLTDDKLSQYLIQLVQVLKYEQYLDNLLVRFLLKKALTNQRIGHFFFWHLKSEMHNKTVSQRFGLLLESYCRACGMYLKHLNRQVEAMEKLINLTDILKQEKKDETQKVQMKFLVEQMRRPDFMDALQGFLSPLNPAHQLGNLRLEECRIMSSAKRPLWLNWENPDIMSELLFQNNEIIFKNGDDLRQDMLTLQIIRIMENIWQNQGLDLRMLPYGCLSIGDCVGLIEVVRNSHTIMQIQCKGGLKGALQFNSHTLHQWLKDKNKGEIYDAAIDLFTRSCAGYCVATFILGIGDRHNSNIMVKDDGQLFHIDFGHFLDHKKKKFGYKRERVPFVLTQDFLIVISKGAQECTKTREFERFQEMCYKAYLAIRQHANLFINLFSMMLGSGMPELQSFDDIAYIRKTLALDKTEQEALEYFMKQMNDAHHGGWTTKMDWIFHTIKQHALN
PI3K-alpha, sequence (P27986 whole entry partner, species assumed): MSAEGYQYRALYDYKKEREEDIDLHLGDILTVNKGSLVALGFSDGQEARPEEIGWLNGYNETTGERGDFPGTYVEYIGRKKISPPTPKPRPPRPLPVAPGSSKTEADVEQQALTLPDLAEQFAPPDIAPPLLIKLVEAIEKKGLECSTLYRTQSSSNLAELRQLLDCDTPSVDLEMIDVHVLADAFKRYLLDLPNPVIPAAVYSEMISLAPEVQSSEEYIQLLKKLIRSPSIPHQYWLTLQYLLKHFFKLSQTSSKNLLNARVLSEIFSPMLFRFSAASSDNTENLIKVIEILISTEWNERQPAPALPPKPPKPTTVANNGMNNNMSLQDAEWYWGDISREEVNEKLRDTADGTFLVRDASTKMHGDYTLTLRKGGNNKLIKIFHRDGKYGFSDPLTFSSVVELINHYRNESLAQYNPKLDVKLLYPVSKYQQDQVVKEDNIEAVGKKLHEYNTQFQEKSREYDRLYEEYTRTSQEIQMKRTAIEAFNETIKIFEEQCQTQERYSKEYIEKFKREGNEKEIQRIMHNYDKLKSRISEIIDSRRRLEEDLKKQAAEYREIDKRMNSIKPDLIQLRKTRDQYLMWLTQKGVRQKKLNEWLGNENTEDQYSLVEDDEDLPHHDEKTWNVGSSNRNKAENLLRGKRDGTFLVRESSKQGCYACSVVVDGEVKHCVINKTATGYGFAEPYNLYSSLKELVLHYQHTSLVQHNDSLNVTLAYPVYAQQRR

Compound	IC50 [1] [µM]	IC50 ([2]; PI3Kγ Avg. IC50) [µM]	IC50 ([2]; read-out: PI3Kγ Avg. IC50) [µM]
COc1cc(/C=C/CN2CCN(C)CC2)c2c(c1)c(/C=C1\Oc3cc(O)ccc3C1=O)cn2C [Compound 582, (2Z)-6-hydroxy-2-({5-methoxy-1-methyl-7-[(1E)-3-(4-methylpiperazin-1-yl)prop-1-en-1-yl]-1H-indol-3-yl}methylene)-1-benzofuran-3(2H)-one]	0.183	3.57	–
CNC(=O)Nc1ccc2c(c1)C(=O)/C(=C/c1c(C)n(CCN(C)C)c3ccc(OC)cc13)O2 [Compound 610, 1-[(2Z)-2-({1-[2-(dimethylamino)ethyl]-5-methoxy-2-methyl-1H-indol-3-yl}methylidene)-3-oxo-2,3-dihydro-1-benzofuran-5-yl]-3-methylurea]	0.0115	0.106	–
CNC(=O)Nc1ccc2c(c1)C(=O)/C(=C/c1c(-c3cccnc3)n(CCN3CCN(C)CC3)c3ccc(OC)cc13)O2 [Compound 596, 1-[(2Z)-2-({5-methoxy-1-[2-(4-methylpiperazin-1-yl)ethyl]-2-pyridin-3-yl-1Hindol-3-yl}methylene)-3-oxo-2,3-dihydro-1-benzofuran-5-yl]-3-methylurea]	0.0017	0.279	–
CNC(=O)Nc1ccc2c(c1)C(=O)/C(=C/c1c(-c3nc(C(C)C)no3)n(CCN3CCN(C)CC3)c3ccc(OC)cc13)O2 [Compound 614, 1-[(2Z)-2-({5-methoxy-2-[3-(1-methylethyl)-1,2,4-oxadiazol-5-yl]-1-[2-(4-methylpiperazin-1-yl)ethyl]-1H-indol-3-yl}methylidene)-3-oxo-2,3-dihydro-1-benzofuran-5-yl]-3-methylurea]	0.0035	0.355	–
Cn1cc(/C=C2\Oc3ccc(Br)cc3C2=O)c2c(-c3ccccc3)cccc21 [Compound 527, (2Z)-5-bromo-2-[(1-methyl-4-phenyl-1H-indol-3-yl)methylene]-1-benzofuran-3(2H)-one]	2.99	3.81	–
COc1ccc2[nH]cc(C=C3Oc4c(OC)cccc4C3=O)c2c1 [Compound 483, 7-methoxy-2-[(5-methoxy-1H-indol-3-yl)methylene]-1-benzofuran-3(2H)-one]	9.86	5.22	–
CNC(=O)Nc1ccc2c(c1)C(=O)/C(=C/c1cn(CCCC#N)c3ccc(OC)cc13)O2 [Compound 579, 1-[(2Z)-2-{[1-(3-cyanopropyl)-5-methoxy-1H-indol-3-yl]methylene}-3-oxo-2,3-dihydro-1-benzofuran-5-yl]-3-methylurea]	0.03	0.129	–
Cn1cc(/C=C2\Oc3cc(O)cc(O)c3C2=O)c2c(-c3ccccc3)cccc21 [Compound 531, (2Z)-4,6-dihydroxy-2-[(1-methyl-4-phenyl-1H-indol-3-yl)methylene]-1-benzofuran-3(2H)-one]	0.34	2.53	–
COc1ccc2c(c1)c(C=C1Oc3cccc(O)c3C1=O)c(C)n2CCCCl [Example 125, 2-{[1-(3-chloropropyl)-5-methoxy-2-methyl-1H-indol-3-yl]methylene}-4-hydroxy-1-benzofuran-3(2H)-one]	0.38	0.933	–
COc1ccc2[nH]cc(/C=C3\Oc4ccc(NC(=O)Nc5ccc(N(C)C)cc5)cc4C3=O)c2c1 [Compound 492, 1-[4-(dimethylamino)phenyl]-3-{(2Z)-2-[(5-methoxy-1H-indol-3-yl)methylene]-3-oxo-2,3-dihydro-1-benzofuran-5-yl}urea]	0.656	> 10	–
CNC(=O)Nc1ccc2c(c1)C(=O)/C(=C/c1c(C3CC3)n(CCN3CCN(C)CC3)c3ccc(OC)cc13)O2 [Compound 559, 1-[(2Z)-2-({2-cyclopropyl-5-methoxy-1-[2-(4-methylpiperazin-1-yl)ethyl]-1Hindol-3-yl}methylene)-3-oxo-2,3-dihydro-1-benzofuran-5-yl]-3-methylurea]	0.00225	0.537	–
COc1ccc2[nH]c(-c3ccccc3)c(CC3Oc4cc(O)cc(O)c4C3=O)c2c1 (stereo not shown) [Example 118, 4,6-dihydroxy-2-[(5-methoxy-2-phenyl-1H-indol-3-yl)methyl]-1-benzofuran-3(2H)-one]	0.288	0.932	–
O=C1/C(=C/c2c(-c3ccccc3)[nH]c3ccccc23)Sc2ccccc21 [Example 274, (2Z)-2-[(2-phenyl-1H-indol-3-yl)methylene]-1-benzothiophen-3(2H)-one]	0.287	0.255	–
N#CCCCn1cc(C=C2Oc3cc(O)cc(O)c3C2=O)c2cc(F)ccc21 [Example 231, 4-{3-[(4,6-dihydroxy-3-oxo-1-benzofuran-2(3H)-ylidene)methyl]-5-fluoro-1H-indol-1-yl}butanenitrile]	3.5	> 10	–
COc1ccc2c(c1)c(/C=C1\Oc3ccc(O)cc3C1=O)cn2CCCN(C)C [Compound 515, (2Z)-2-({1-[3-(dimethylamino)propyl]-5-methoxy-1H-indol-3-yl}methylene)-5-hydroxy-1-benzofuran-3(2H)-one]	1.17	2.51	–
CNC(=O)Nc1ccc2c(c1)C(=O)/C(=C/c1c(-c3ccccc3)n(CCN3CCN(C)CC3)c3ccc(OC)cc13)O2 [Compound 575, 1-[(2Z)-2-({5-methoxy-1-[2-(4-methylpiperazin-1-yl)ethyl]-2-phenyl-1H-indol-3-yl}methylene)-3-oxo-2,3-dihydro-1-benzofuran-5-yl]-3-methylurea]	0.00125	0.206	–
CNC(=O)Nc1ccc2c(c1)C(=O)/C(=C/c1c(C)n(CCCN3CCN(CCO)CC3)c3ccc(OC)cc13)O2 [Compound 599, 1-{(2Z)-2-[(1-{3-[4-(2-hydroxyethyl)piperazin-1-yl]propyl}-5-methoxy-2-methyl-1H-indol-3-yl)methylidene]-3-oxo-2,3-dihydro-1-benzofuran-5-yl}-3-methylurea]	0.01	0.95	–
CNC(=O)Nc1ccc2c(c1)C(=O)/C(=C/c1c(C3=CCNCC3)[nH]c3ccc(OC)cc13)O2 [Compound 606, 1-[(2Z)-2-{[5-methoxy-2-(1,2,3,6-tetrahydropyridin-4-yl)-1H-indol-3-yl]methylidene}-3-oxo-2,3-dihydro-1-benzofuran-5-yl]-3-methylurea]	0.008	0.113	–
CCc1cc(OC)cc2c(/C=C3\Oc4cccc(O)c4C3=O)cn(CCCC#N)c12 [Compound 475, 4-{7-ethyl-3-[(Z)-(4-hydroxy-3-oxo-1-benzofuran-2(3H)-ylidene)methyl]-5-methoxy-1H-indol-1-yl}butanenitrile]	> 10	> 10	–
CNC(=O)Nc1ccc2c(c1)C(=O)/C(=C/c1c[nH]c3c(CCCN4CCN(C)CC4)cc(OC)cc13)O2 [Compound 583, 1-[(2Z)-2-({5-methoxy-7-[3-(4-methylpiperazin-1-yl)propyl]-1H-indol-3-yl}methylene)-3-oxo-2,3-dihydro-1-benzofuran-5-yl]-3-methylurea]	0.222	6.49	–
CCc1cc(OC)cc2c(/C=C3\Oc4cc(O)ccc4C3=O)cn(CCCC#N)c12 [Compound 474, 4-{7-ethyl-3-[(Z)-(6-hydroxy-3-oxo-1-benzofuran-2(3H)-ylidene)methyl]-5-methoxy-1H-indol-1-yl}butanenitrile]	0.246	1.39	–
COc1ccc2[nH]cc(/C=C3\Oc4ccc(-c5nnn[nH]5)cc4C3=O)c2c1 [Compound 524, (2Z)-2-[(5-methoxy-1H-indol-3-yl)methylene]-5-(1H-tetrazol-5-yl)-1-benzofuran-3(2H)-one]	12	> 10	–
COc1ccc(NC(=O)Nc2ccc3c(c2)C(=O)/C(=C/c2c[nH]c4ccc(OC)cc24)O3)cc1 [Compound 491, 1-{(2Z)-2-[(5-methoxy-1H-indol-3-yl)methylene]-3-oxo-2,3-dihydro-1-benzofuran-5-yl}-3-(4-methoxyphenyl)urea]	0.465	1.31	–
CCNC(=O)Nc1ccc2c(c1)C(=O)/C(=C/c1cn(CCCN(C)C)c3ccc(OC)cc13)O2 [Compound 547, 1-[(2Z)-2-({1-[3-(dimethylamino)propyl]-5-methoxy-1H-indol-3-yl}methylene)-3-oxo-2,3-dihydro-1-benzofuran-5-yl]-3-ethylurea]	0.063	2.12	–
CNC(=O)Nc1ccc2c(c1)C(=O)/C(=C/c1cn(CCN3CCN(C)CC3)c3ccc(OC)cc13)O2 [Compound 553, 1-[(2Z)-2-({5-methoxy-1-[2-(4-methylpiperazin-1-yl)ethyl]-1H-indol-3-yl}methylene)-3-oxo-2,3-dihydro-1-benzofuran-5-yl]-3-methylurea]	0.031	4.83	–
COc1ccc2[nH]cc(C=C3Oc4cc(O)cc(-c5ccccc5)c4C3=O)c2c1 [Compound 504, 6-hydroxy-2-[(5-methoxy-1H-indol-3-yl)methylene]-4-phenyl-1-benzofuran-3(2H)-one]	0.122	0.541	–
CCCCNC(=O)Nc1ccc2c(c1)C(=O)/C(=C/c1c[nH]c3ccc(OC)cc13)O2 [Compound 487, 1-butyl-3-{(2Z)-2-[(5-methoxy-1H-indol-3-yl)methylene]-3-oxo-2,3-dihydro-1-benzofuran-5-yl}urea]	10.2	> 10	–
COc1cc(-c2cncnc2)c2c(c1)c(/C=C1\Oc3cc(O)ccc3C1=O)cn2CCCC#N [Compound 501, 4-{3-[(Z)-(6-hydroxy-3-oxo-1-benzofuran-2(3H)-ylidene)methyl]-5-methoxy-7-pyrimidin-5-yl-1H-indol-1-yl}butanenitrile]	0.701	7	–
4-hydroxy-2-{[5-methoxy-2-methyl-1-(2-morpholin-4-ylethyl)-1H-indol-3-yl]methylene}-1-benzofuran-3(2H)-one [Example 130]	0.65	–	4.13

From patent US20090311217A1, “3-SUBSTITUTED-1H-INDOLE COMPOUNDS, THEIR USE AS MTOR KINASE AND PI3 KINASE INHIBITORS, AND THEIR SYNTHESES” (priority 2008, published 2009)
